Test results: patent US20260176267A1, “PREPARATION OF IMIDAZOPYRIDINE AND IMIDAZOPYRIDAZINE DERIVATIVES AS NOVEL DIACYLGLYCERIDE O-ACYLTRANSFERASE 2 INHIBITORS” (Merck Sharp & Dohme LLC, priority 2022, published 2026)

Target: T1, human DGAT2 (hDGAT2) (Homo sapiens, UniProt Q96PD7)
T1 construct: made in house; host or cells: Sf-9 insect cells (baculovirus), membrane fraction
T1 sequence (Q96PD7 1-388): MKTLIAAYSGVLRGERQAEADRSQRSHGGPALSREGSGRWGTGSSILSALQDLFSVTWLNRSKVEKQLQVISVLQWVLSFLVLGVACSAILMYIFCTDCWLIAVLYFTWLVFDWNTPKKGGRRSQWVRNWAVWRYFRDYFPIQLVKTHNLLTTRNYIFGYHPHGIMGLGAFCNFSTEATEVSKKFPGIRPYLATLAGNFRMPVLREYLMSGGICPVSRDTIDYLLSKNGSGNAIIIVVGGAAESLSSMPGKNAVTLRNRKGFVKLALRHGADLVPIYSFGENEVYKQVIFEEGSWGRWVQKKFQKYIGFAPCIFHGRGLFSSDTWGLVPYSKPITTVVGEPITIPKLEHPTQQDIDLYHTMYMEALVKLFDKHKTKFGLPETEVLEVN
Test: DGAT2 Enzymatic Activity Assay
Type: biochemical
Conditions: membrane prep of Sf-9 cells expressing hDGAT2; 13C18-triolein product by LC/MS/MS; 25 μM diolein, 5 μM 13C oleoyl-CoA, rt
In short: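 At room temperature, DGAT2 activity in baculovirus-infected Sf-9 membrane preps (human enzyme, untagged) is measured as formation of ^13C18-triolein. Product is extracted and measured by positive-mode LC/MS/MS, with the ratio to spiked ^13C21-triolein giving inhibition and IC50.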

Compound: Cc1c(C(=O)NC2(C)CCS(=O)(=O)CC2)nc2cc(F)c(Oc3nccnc3OCC(F)(F)F)cn12 [Example 122, 7-fluoro-3-methyl-N-(4-methyl-1,1-dioxo-thian-4-yl)-6-[3-(2,2,2-trifluoroethoxy)pyrazin-2-yl]oxy-imidazo[1,2-a]pyridine-2-carboxamide]
- IC50: 7.7 nM

Compound: Cc1c(C(=O)NC2(C)CCS(=O)(=O)CC2)nc2ccc(OCc3ncccc3OCC(F)(F)F)cn12 [Example 123, 3-methyl-N-(4-methyl-1,1-dioxo-thian-4-yl)-6-[[3-(2,2,2-trifluoroethoxy)-2-pyridyl]methoxy]imidazo[1,2-a]pyridine-2-carboxamide]
- IC50: 93 nM

Compound: CCOc1ccccc1COc1ccc2nc(C(=O)NC3(C)CCS(=O)(=O)CC3)c(C)n2c1 [Example 124, 6-[(2-ethoxyphenyl)methoxy]-3-methyl-N-(4-methyl-1,1-dioxo-thian-4-yl)imidazo[1,2-a]pyridine-2-carboxamide]
- IC50: 5.7 nM

Compound: CCOc1cccnc1COc1ccc2nc(C(=O)NC3(C)CCS(=O)(=O)CC3)c(C)n2c1 [Example 125, 6-[(3-ethoxy-2-pyridyl)methoxy]-3-methyl-N-(4-methyl-1,1-dioxo-thian-4-yl)imidazo[1,2-a]pyridine-2-carboxamide]
- IC50: 4.9 nM

Compound: Cc1c(C(=O)NC2(C)CCS(=O)(=O)CC2)nc2ccc(OCc3ccc(F)cc3)cn12 [Example 126, 6-[(4-fluorophenyl)methoxy]-3-methyl-N-(4-methyl-1,1-dioxo-thian-4-yl)imidazo[1,2-a]pyridine-2-carboxamide]
- IC50: 465 nM

Compound: Cc1c(C(=O)NC2(C)CCS(=O)(=O)CC2)nc2ccc(OCc3ccccc3OC(F)F)cn12 [Example 127, 6-[[2-(difluoromethoxy)phenyl]methoxy]-3-methyl-N-(4-methyl-1,1-dioxo-thian-4-yl)imidazo[1,2-a]pyridine-2-carboxamide]
- IC50: 6.5 nM

Compound: Cc1c(C(=O)NC2(C)CCS(=O)(=O)CC2)nc2ccc(OCCC(F)(F)F)cn12 [Example 128, 3-methyl-N-(4-methyl-1,1-dioxo-thian-4-yl)-6-(3,3,3-trifluoropropoxy)imidazo[1,2-a]pyridine-2-carboxamide]
- IC50: > 9990 nM

Compound: CCOCC(C)(C)COc1ccc2nc(C(=O)NC3(C)CCS(=O)(=O)CC3)c(C)n2c1 [Example 129, 6-(3-ethoxy-2,2-dimethyl-propoxy)-3-methyl-N-(4-methyl-1,1-dioxo-thian-4-yl)imidazo[1,2-a]pyridine-2-carboxamide]
- IC50: 161 nM

Compound: CC1(NC(=O)c2nc3ccc(Oc4ncccc4OCC(F)(F)F)cn3c2Cl)CCS(=O)(=O)CC1 [Example 130, 3-chloro-N-(4-methyl-1,1-dioxo-thian-4-yl)-6-[[3-(2,2,2-trifluoroethoxy)-2-pyridyl]oxy]imidazo[1,2-a]pyridine-2-carboxamide]
- IC50: 3.3 nM

Compound: CC1(NC(=O)c2nc3ccc(Oc4ncccc4OCC(F)(F)F)cn3c2O)CCS(=O)(=O)CC1 [Example 131, 3-hydroxy-N-(4-methyl-1,1-dioxo-thian-4-yl)-6-[[3-(2,2,2-trifluoroethoxy)-2-pyridyl]oxy]imidazo[1,2-a]pyridine-2-carboxamide]
- IC50: 34 nM

Compound: CC1(NC(=O)c2nc3ccc(Oc4ncccc4OCC(F)(F)F)cn3c2C(=O)O)CCS(=O)(=O)CC1 [Example 132, 2-((4-methyl-1,1-dioxidotetrahydro-2H-thiopyran-4-yl)carbamoyl)-6-((3-(2,2,2-trifluoroethoxy)pyridin-2-yl)oxy)imidazo[1,2-a]pyridine-3-carboxylic acid]
- IC50: > 9990 nM

Compound: CC1(NC(=O)c2nc3ccc(Oc4ncccc4OCC(F)(F)F)cn3c2C(N)=O)CCS(=O)(=O)CC1 [Example 133, N2-(4-methyl-1,1-dioxo-thian-4-yl)-6-[[3-(2,2,2-trifluoroethoxy)-2-pyridyl]oxy-]imidazo[1,2-a]pyridine-2,3-dicarboxamide]
- IC50: 28 nM

Compound: COc1c(C(=O)NC2(C)CCS(=O)(=O)CC2)nc2ccc(Oc3ncccc3OCC(F)(F)F)cn12 [Example 134, 3-methoxy-N-(4-methyl-1,1-dioxo-thian-4-yl)-6-[[3-(2,2,2-trifluoroethoxy)-2-pyridyl]oxy]imidazo[1,2-a]pyridine-2-carboxamide]
- IC50: 6.2 nM

Compound: COc1c(C(=O)NC2(C)CS(=O)(=O)C2)nc2ccc(Oc3ncc(F)cc3OCC(F)(F)F)cn12 [Example 135, 6-[[5-fluoro-3-(2,2,2-trifluoroethoxy)-2-pyridyl]oxy]-3-methoxy-N-(3-methyl-1,1-dioxo-thietan-3-yl)imidazo[1,2-a]pyridin-1-ium-2-carboxamide;2,2,2-trifluoroacetate]
- IC50: 62 nM

Compound: CC1(NC(=O)c2nc3ccc(Oc4ncccc4OCC(F)(F)F)cn3c2C(F)(F)F)CCS(=O)(=O)CC1 [Example 136, N-(4-methyl-1,1-dioxo-thian-4-yl)-6-[[3-(2,2,2-trifluoroethoxy)-2-pyridyl]oxy]-3-(trifluoromethyl)imidazo[1,2-a]pyridine-2-carboxamide]
- IC50: 146 nM

Compound: CC1(NC(=O)c2nc3ccc(Oc4ncccc4OCC(F)(F)F)cn3c2CO)CCS(=O)(=O)CC1 [Example 137, 3-(hydroxymethyl)-N-(4-methyl-1,1-dioxo-thian-4-yl)-6-[3-(2,2,2-trifluoroethoxy)pyridine-2-yl]oxy-imidazo[1,2-a]pyridine-2-carboxamide]
- IC50: 11 nM

Compound: Cc1c(C(=O)NC2(C)CCS(=O)(=O)CC2)nc2cc(C#N)c(Oc3ncc(Cl)cc3OCC(F)(F)F)cn12 [Example 138, 6-[5-chloro-3-(2,2,2-trifluoroethoxy)pyridine-2-yl]oxy-7-cyano-3-methyl-N-(4-methyl-1,1-dioxo-thian-4-yl)imidazo[1,2-a]pyridine-2-carboxamide]
- IC50: 25 nM

Compound: CC1(NC(=O)c2nc3ccc(Oc4ncc(F)cc4OCC(F)(F)F)c(Cl)n3c2Cl)CCS(=O)(=O)CC1 [Example 139, 3,5-dichloro-6-[[5-fluoro-3-(2,2,2-trifluoroethoxy)-2-pyridyl]oxy]-N-(4-methyl-1,1-dioxo-thian-4-yl)imidazo[1,2-a]pyridine-2-carboxamide]
- IC50: 0.7 nM

Compound: CC1(NC(=O)c2nc3ccc(Oc4ncc(F)cc4OCC(F)(F)F)c(Cl)n3c2Cl)CS(=O)(=O)C1 [Example 140, 3,5-dichloro-6-[[5-fluoro-3-(2,2,2-trifluoroethoxy)-2-pyridyl]oxy]-N-(3-methyl-1,1-dioxo-thietan-3-yl)imidazo[1,2-a]pyridine-2-carboxamide]
- IC50: 2.1 nM

Compound: Cc1c(Oc2ncc(Cl)cc2OCC(F)(F)F)ccc2nc(C(=O)NC3(C)CCS(=O)(=O)CC3)c(Cl)n12 [Example 141, 3-chloro-6-[[5-chloro-3-(2,2,2-trifluoroethoxy)-2-pyridyl]oxy]-5-methyl-N-(4-methyl-1,1-dioxo-thian-4-yl)imidazo[1,2-a]pyridine-2-carboxamide]
- IC50: 2.6 nM

Compound: Cc1c(Oc2ncc(Cl)cc2OCC(F)(F)F)ccc2nc(C(=O)NC3(C)CCS(=O)(=O)CC3)c(F)n12 [Example 142, 6-[[5-chloro-3-(2,2,2-trifluoroethoxy)-2-pyridyl]oxy]-3-fluoro-5-methyl-N-(4-methyl-1,1-dioxo-thian-4-yl)imidazo[1,2-a]pyridine-2-carboxamide]
- IC50: 3.5 nM

Compound: Cc1c(Oc2ncc(Cl)cc2OCC(C)(F)F)ccc2nc(C(=O)NC3(C)CCS(=O)(=O)CC3)c(F)n12 [Example 143, 6-[[5-chloro-3-(2,2-difluoropropoxy)-2-pyridyl]oxy]-3-fluoro-5-methyl-N-(4-methyl-1,1-dioxo-thian-4-yl)imidazo[1,2-a]pyridine-2-carboxamide]
- IC50: 37 nM

Compound: Cc1cnc(Oc2ccc3nc(C(=O)NC4(C)CCS(=O)(=O)CC4)c(C)n3c2)c(OCC(F)(F)F)c1 [Example 144, 3-methyl-N-(4-methyl-1,1-dioxo-thian-4-yl)-6-[[5-methyl-3-(2,2,2-trifluoroethoxy)-2-pyridyl]oxy]imidazo[1,2-a]pyridine-2-carboxamide]
- IC50: 8.9 nM

Compound: Cc1c(C(=O)NC2(C)CCS(=O)(=O)CC2)nc2ccc(Oc3ncc(C4CC4)cc3OCC(F)(F)F)cn12 [Example 145, 6-[[5-cyclopropyl-3-(2,2,2-trifluoroethoxy)-2-pyridyl]oxy]-3-methyl-N-(4-methyl-1,1-dioxo-thian-4-yl)imidazo[1,2-a]pyridine-2-carboxamide]
- IC50: 133 nM

Compound: Cc1c(C(=O)NC2(C)CCS(=O)(=O)CC2)nc2ccc(Oc3ncc(C(C)(C)O)cc3OCC(F)(F)F)cn12 [Example 146, 6-[[5-(1-hydroxy-1-methyl-ethyl)-3-(2,2,2-trifluoroethoxy)-2-pyridyl]oxy]-3-methyl-N-(4-methyl-1,1-dioxo-thian-4-yl)imidazo[1,2-a]pyridine-2-carboxamide]
- IC50: 102 nM

Compound: Cc1c(C(=O)NC2(C)CCS(=O)(=O)CC2)nc2ccc(Oc3ncc(C(C)(C)F)cc3OCC(F)(F)F)cn12 [Example 147, 6-[[5-(1-fluoro-1-methyl-ethyl)-3-(2,2,2-trifluoroethoxy)-2-pyridyl]oxy]-3-methyl-N-(4-methyl-1,1-dioxo-thian-4-yl)imidazo[1,2-a]pyridine-2-carboxamide]
- IC50: 41 nM

Compound: Cc1c(C(=O)NC2(C)CCS(=O)(=O)CC2)nc2ccc(Oc3ncc(O)cc3OCC(F)(F)F)cn12 [Example 148, 6-[[5-hydroxy-3-(2,2,2-trifluoroethoxy)-2-pyridyl]oxy]-3-methyl-N-(4-methyl-1,1-dioxo-thian-4-yl)imidazo[1,2-a]pyridine-2-carboxamide]
- IC50: 80 nM
